The values below come from paper PMC9026148, “Pre-Clinical Study Evaluating Novel Protein Phosphatase 2A Activators as Therapeutics for Neuroblastoma” (Cancers, 2022).

The target of one data set is T1, PP2A (Homo sapiens, UniProt P30153+P67775).
T1 construct: host or cells: SH-EP
The data set is described as follows: PP2A immunoprecipitation phosphatase assay in SH-EP cells. In kind it is cell-based. The note with it: 24 h, 10 μM in text (15 μM in Figure 2 legend), control 100 ± 0%.

Data set [1] in a line: Microsome (oxidative metabolism) stability, rat. Format: in vitro ADME. The note with it: for half-life at 1 µM: liver microsomes 0.5 mg/mL, NADPH, read-out: T1/2 Rat; for microsomal CLint at 1 µM: liver microsomes, read-out: CL Rat. As to the method:
(§1) Microsome stability assays were performed by Bioduro, LLC. Briefly, 2.5 µL (100 µM in DMSO) of test compounds are added to 197.5 µL of human, rat, or mouse microsome preparation (0.633 mg/mL in phosphate buffer) and mixed gently at 37 °C. The reaction is started by adding 50 µL NADPH (5 mM in phosphate buffer) and mixing at 37 °C. The final reaction microsome concentration is 0.5 mg/mL. The reaction is sampled at 0, 5, 15, 30, and 60 min. Reaction aliquots are quenched by adding to 1:1 methanol–acetonitrile containing analytical standards and analyzed by liquid chromatography with tandem mass spectrometry (LC-MS/MS).
For orientation: Liver microsomes are a subcellular fraction often used to study metabolism.

The test system of data set [2] is SK-N-AS, SK-N-BE(2), SH-EP, WAC2, COA6, COA129 cells. The data set is described as follows: alamarBlue viability, long-term cell lines and PDX cells. The note with it: increasing doses, 24 h; all cell lines. In kind it is cell-based, human. Here is the method: (§2) CellTiter 96® Aqueous One Solution Cell Proliferation assay (Promega, Madison, WI, USA) was used to examine proliferation, and alamarBlue® assay (Thermo Fisher Scientific, Inc.) was used to evaluate viability. Cells, concentrations ranging from 5 × 10^3 to 1.5 × 10^4, depending on cell type due to wide variation in growth characteristics between established cell lines and PDX cells, were plated in 96-well plates and treated with increasing doses of 792 or 1154 for 24 h. CellTiter 96® or alamarBlue® dye (10 µL) was added for proliferation and viability assays, respectively. A microplate reader (Epoch Microplate Spectrophotometer, BioTek Instruments, Winooski, VT) measured absorbance at 490 nm for CellTiter 96® and at 570 nm for alamarBlue®, using 600 nm as a reference. […] Experiments were completed with at least three biologic replicates, and data reported as fold change ± SEM.
Supplemental Figure S5: Treatment of neuroblastoma cell lines with 792 or 1154 resulted in decreased viability. Neuroblastoma cells ( 1.5 x 104 for AS, BE, SH-EP, WAC, COA6; 3 x 105 for COA129) were plated in 96-well plates and treated with increasing doses of 792 or […]
viability following increasing doses of either 792 (A) or 1154 (B). Similarly, increasing […]
PDXs. Data reported as mean fold change ± SEM, and experiments were repeated with at least three biologic replicates. […]
(In general: Alamar Blue is a resazurin reagent that responds to reducing activity.)

A short description of data set [3]: Microsome (oxidative metabolism) stability, human. In kind it is in vitro ADME. The note with it: for half-life at 1 µM: liver microsomes 0.5 mg/mL, NADPH, read-out: T1/2 Human; for microsomal CLint at 1 µM: liver microsomes, read-out: CL Human. As to the method: as §1
Data set [4] concerns SK-N-AS, SK-N-BE(2), SH-EP, WAC2 cells. The data set is described as follows: Monolayer wound healing (scratch) migration assay. Format: cell-based, human. The settings on record: 36 h; 792 10 μM SK-N-AS, 15 μM others; 1154 10 μM SK-N-AS and SK-N-BE(2), 15 μM SH-EP and WAC2. Here is the method: Since the established neuroblastoma cell lines grow as adherent cells, migration in SK-N-AS, SK-N-BE(2), SH-EP, and WAC2 cells was examined using monolayer wound healing (scratch) assay. […] Once cells reached 80% confluence, a sterile 200 μL pipette tip was used to make a standard scratch in the cell layer. Photographs of the plates were obtained at 0, 12, 24, and 36 h. ImageJ MRI Wound Healing Tool (http://imagej.nih.gov/ij/ (accessed on 14 October 2019) quantified the open wound area, and data reported as fold change of the open area ± SEM. Invasion was evaluated with a modified Boyden chamber technique. The insert bottoms were coated with collagen type I (10 µg/mL, MP Biomedicals, Santa Ana, CA, USA). The insert tops were coated with a layer of Matrigel^TM (1 mg/mL, 50 μL, BD Biosciences). Cells were treated for 24 h with 792 (SK-N-AS 10 μM; SK-N-BE(2), SH-EP, WAC2 15 μM) or 1154 (SK-N-AS, SK-N-BE(2) 10 μM; SH-EP, WAC2 15 μM), plated (4 × 10^4 cells), and allowed to invade through the membrane for 24 h. Insert membranes were fixed using 4% paraformaldehyde, stained with 1% crystal violet for 15 min, photographed, and invasion quantified with ImageJ (http://imagej.nih.gov/ij/ (accessed on 10 September 2019)). Invasion data were reported as mean percent membrane occupied by cells ± SEM. Experiments were completed with at least three biologic replicates.

The test system of a further data set is SET. The data set is described as follows: Immunoblotting of SET in neuroblastoma cells. Format: cell-based, human. The note with it: increasing concentrations, 24 h; four cell lines and two PDXs. As to the method: Following treatment, cells were lysed on ice using radioimmunoprecipitation (RIPA) buffer with phosphatase inhibitors (P5726, Sigma Aldrich), protease inhibitors (P8340, Sigma Aldrich), and phenylmethanesulfonylfluoride (PMSF, P7626, Sigma Aldrich) for 60 min. Cell lysates were centrifuged at 17,000 rpm for 30 min at 4 °C. Pierce™ BCA Protein Assay (Thermo Fisher Scientific, Inc.) determined protein concentration and proteins were separated by electrophoresis on sodium dodecyl sulfate polyacrylamide (SDS-PAGE) gels. Expected size of the targeted proteins was confirmed using molecular weight markers (Precision Plus Protein Kaleidoscope, Bio-Rad, Hercules, CA, USA). […] Immunoblots were developed with Luminata Classico or Crescendo Western horseradish peroxidase substrate (EMD Millipore, Burlington, MA, USA). Either anti-vinculin or anti-β-actin (as available from manufacturer) served as an internal loading control. We performed densitometry of Western blots using ImageJ software (Ver 1.49, http://imagej.nih.gov/ij (accessed on 9 February 2022).
On the technique in general: In western blotting, separated proteins are transferred to a membrane and probed.

In the next data set the test system is SK-N-AS cells. The data set is described as follows: alamarBlue viability, SK-N-AS. Format: cell-based, human. The settings on record: 24 h. As to the method: as §2
Supplemental Figure S3: Novel PP2A activating compounds decrease d neuroblastoma proliferation and viability. SK-N-AS and SK-N-BE(2) cells (1.5 x 104) were plated in 96-well plates and treated with increasing doses of nine PP2A activating compounds for 24 […]
novel PP2A activators tested in (A) SK-N-AS and (B) SK-N-BE(2) cells. Similarly, PP2A […]
(D) SK-N-BE(2) cells. Data reported as mean fold change ± SEM, and experiments were repeated with at least three biologic replicates. […]

The structures appear in SMILES notation.

T1 sequence (P67775 whole entry): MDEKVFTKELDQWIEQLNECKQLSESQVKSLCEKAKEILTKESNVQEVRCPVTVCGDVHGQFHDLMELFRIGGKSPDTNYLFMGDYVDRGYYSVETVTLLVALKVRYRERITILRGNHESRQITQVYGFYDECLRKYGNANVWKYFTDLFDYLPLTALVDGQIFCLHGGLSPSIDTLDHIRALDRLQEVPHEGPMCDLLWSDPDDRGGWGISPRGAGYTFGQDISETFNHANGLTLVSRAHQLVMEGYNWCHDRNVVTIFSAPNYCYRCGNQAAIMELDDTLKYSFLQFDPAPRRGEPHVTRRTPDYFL
T1 sequence (P30153 2-589 limits assumed): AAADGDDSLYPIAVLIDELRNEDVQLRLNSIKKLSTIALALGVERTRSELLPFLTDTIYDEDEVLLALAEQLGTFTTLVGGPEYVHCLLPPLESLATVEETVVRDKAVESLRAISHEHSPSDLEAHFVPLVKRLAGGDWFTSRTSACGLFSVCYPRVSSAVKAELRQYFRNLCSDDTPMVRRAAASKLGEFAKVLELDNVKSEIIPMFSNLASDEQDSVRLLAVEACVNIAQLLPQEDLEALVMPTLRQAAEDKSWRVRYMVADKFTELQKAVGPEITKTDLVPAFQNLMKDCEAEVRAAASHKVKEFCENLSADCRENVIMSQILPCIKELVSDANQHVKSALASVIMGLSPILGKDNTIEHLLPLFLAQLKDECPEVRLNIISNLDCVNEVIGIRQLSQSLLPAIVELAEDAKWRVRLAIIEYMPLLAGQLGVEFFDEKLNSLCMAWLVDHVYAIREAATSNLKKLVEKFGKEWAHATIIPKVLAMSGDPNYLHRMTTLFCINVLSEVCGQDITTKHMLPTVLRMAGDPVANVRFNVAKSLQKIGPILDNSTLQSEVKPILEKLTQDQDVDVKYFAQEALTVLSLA

Take `O=S(=O)(N[C@H]1COC[C@@H](n2c3ccc(Cl)cc3c3cc(Cl)ccc32)[C@@H]1O)c1ccc(OC(F)(F)F)cc1` [ATUX-792]: the “PP2A activation (percent PP2A activity)” value at PP2A came out at 117.3 ± 7.2%. For the same molecule, in data set [1], the half-life at 1 µM was more than 256 min and the microsomal CLint at 1 µM was less than 5 µL/min/mg. The viability result in data set [2] was “significantly decreased viability”. For the same molecule, in data set [3], the half-life at 1 µM was more than 256 min and the microsomal CLint at 1 µM is less than 5 µL/min/mg. For the same molecule, the “Migration (fold change of open wound area)” value in data set [4] is on record as “significantly decreased”. Besides, the SET expression entry in the data set with SET was “unchanged”. The molecule also had an LD50 with SK-N-AS cells of 12.2 µM.

Turning to `O=S(=O)(NC1CCCC(N2c3ccccc3CCc3ccccc32)C1O)c1ccc(OC(F)(F)F)cc1` (stereo not drawn) [DBK-1154], the “PP2A activation (percent PP2A activity)” value at PP2A stood at 138.0 ± 16.5%. In data set [1], the half-life at 1 µM amounted to 3 min and the microsomal CLint at 1 µM was 521 µL/min/mg. Also, the viability result in data set [2] is listed as “significantly decreased viability”. Further, in data set [3], the half-life at 1 µM was determined as 10 min and the microsomal CLint at 1 µM stood at 134 µL/min/mg. In addition, the “Migration (fold change of open wound area)” value in data set [4] is “significantly decreased”. In addition, the SET expression result in the data set with SET is recorded as “unchanged”. The molecule further had an LD50 with SK-N-AS cells of 13.9 µM.
